Key:
[1] = target: T1, eukaryotic topoisomerase IIα (Homo sapiens, UniProt P11388); settings: read-out: Topo-IIα inhibition IC50; literature range; cited from earlier work
[2] = test system: Topo-IIα; settings: cited from earlier work
[3] = target: T1, eukaryotic topoisomerase IIα; test: Topo-IIα inhibition, agarose gel supercoiled DNA relaxation assay; format: biochemical; settings: for Topo-IIα inhibition at 100 μM: 100 μM TSC ligand, gel Figure 1B
[4] = target: T1, eukaryotic topoisomerase IIα; test: Gel-based Topo-IIα inhibition mechanism assay; format: biochemical; settings: 500 μM inhibitor, 4 units enzyme

T1 sequence (P11388 whole entry): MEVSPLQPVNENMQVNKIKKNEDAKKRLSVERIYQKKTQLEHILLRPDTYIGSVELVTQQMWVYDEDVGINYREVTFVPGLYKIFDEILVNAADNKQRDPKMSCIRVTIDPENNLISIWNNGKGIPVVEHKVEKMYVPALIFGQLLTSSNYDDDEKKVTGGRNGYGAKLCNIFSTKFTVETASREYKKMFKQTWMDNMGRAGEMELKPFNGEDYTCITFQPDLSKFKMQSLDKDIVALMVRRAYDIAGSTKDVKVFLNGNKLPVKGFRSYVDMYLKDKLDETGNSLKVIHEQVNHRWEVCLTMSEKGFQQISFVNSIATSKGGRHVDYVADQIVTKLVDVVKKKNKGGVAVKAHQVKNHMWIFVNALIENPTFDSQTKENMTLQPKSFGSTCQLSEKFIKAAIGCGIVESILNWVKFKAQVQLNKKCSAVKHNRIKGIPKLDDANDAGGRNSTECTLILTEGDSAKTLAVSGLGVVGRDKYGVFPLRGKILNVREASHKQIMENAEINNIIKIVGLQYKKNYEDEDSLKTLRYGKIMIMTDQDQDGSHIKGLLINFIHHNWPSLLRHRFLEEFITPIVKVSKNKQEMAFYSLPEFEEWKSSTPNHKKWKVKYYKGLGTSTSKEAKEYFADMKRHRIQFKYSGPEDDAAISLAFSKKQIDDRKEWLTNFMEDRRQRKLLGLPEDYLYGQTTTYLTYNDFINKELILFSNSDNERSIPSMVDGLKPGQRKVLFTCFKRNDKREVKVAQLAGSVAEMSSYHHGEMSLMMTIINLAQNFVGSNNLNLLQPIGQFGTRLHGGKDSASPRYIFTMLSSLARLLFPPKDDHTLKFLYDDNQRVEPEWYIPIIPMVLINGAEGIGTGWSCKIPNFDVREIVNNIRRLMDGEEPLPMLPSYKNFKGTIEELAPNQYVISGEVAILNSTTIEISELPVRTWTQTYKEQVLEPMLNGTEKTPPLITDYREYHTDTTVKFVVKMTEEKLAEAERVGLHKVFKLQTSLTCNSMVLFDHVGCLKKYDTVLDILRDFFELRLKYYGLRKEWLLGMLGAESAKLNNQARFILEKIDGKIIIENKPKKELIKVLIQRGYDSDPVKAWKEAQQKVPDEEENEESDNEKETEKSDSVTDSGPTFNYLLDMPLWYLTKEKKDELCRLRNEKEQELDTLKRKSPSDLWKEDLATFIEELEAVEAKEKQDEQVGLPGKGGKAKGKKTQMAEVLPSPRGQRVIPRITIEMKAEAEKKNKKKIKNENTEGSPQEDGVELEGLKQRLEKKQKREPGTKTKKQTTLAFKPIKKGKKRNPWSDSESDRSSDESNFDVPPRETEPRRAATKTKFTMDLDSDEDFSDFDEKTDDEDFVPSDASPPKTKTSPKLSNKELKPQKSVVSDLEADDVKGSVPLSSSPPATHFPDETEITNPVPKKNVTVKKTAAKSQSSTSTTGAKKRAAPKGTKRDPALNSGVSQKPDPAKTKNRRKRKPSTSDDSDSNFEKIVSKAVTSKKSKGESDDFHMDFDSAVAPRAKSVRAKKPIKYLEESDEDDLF

COc1cccc2c1C(=O)c1c(O)c3c(c(O)c1C2=O)C[C@@](O)(C(=O)CO)C[C@@H]3O[C@H]1C[C@H](N)[C@H](O)[C@H](C)O1 [doxorubicin]
IC50 [1]: 1 to 5 µM

CN(C)C(=S)NN=C(c1ccccn1)c1ccccn1 [Dp44mT, di-2-pyridylketone-4,4-dimethylthiosemicarbazone]
concentration at which in vivo Topo-IIα inhibition was found [2]: < 1 µM

CNC(=S)N/N=C(\C)c1ccccn1 [HAp4mT, (E)-N-Methyl-2-(1-(pyridin-2-yl)ethylidene)hydrazinecarbothioamide]
Topo-IIα inhibition at 100 μM [3]: displaying any degree of inhibition

CCNC(=S)N/N=C/c1ccccn1 [HFp4eT, (E)-N-Ethyl-2-(pyridin-2-ylmethylene)hydrazinecarbothioamide]
Topo-IIα inhibition at 100 μM [3]: displaying any degree of inhibition

O=C1NC(=S)NC(=O)C1C(=O)Nc1ccccc1 [merbarone]
IC50 [1]: 40 to 50 µM

[Cl][Cu][Cl] [CuCl2]
Topo-IIα inhibition, control experiment ([3]; any concentrations below 500 μM): does not inhibit the enzyme

O=c1c(-c2ccc(O)cc2)coc2cc(O)cc(O)c12 [genistein]
Topo-IIα inhibition mechanism (formation of linear DNA) [4]: produce discrete bands of linear DNA

CCNC(=S)N/N=C(\C)c1ccccn1 [HAp4eT, (E)-N-Ethyl-2-(1-(pyridin-2-yl)ethylidene)hydrazinecarbothioamide]
Topo-IIα inhibition at 100 μM [3]: displaying any degree of inhibition

COc1cc(NS(C)(=O)=O)ccc1Nc1c2ccccc2nc2ccccc12 [m-AMSA]
Topo-IIα inhibition mechanism (formation of linear DNA) [4]: produce discrete bands of linear DNA

CNC(=S)N/N=C/c1ccccn1 [HFp4mT, (E)-N-Methyl-2-(pyridin-2-ylmethylene) hydrazinecarbothioamide]
Topo-IIα inhibition at 100 μM [3]: displaying any degree of inhibition

2-Formylpyridine-N^4-allylthiosemicarbazonatochlorocopper (II) [Cu(Fp4alT)Cl]
Topo-IIα inhibition mechanism (formation of linear DNA) [4]: completely inhibits Topo-IIα without promoting the formation of linear DNA products

Cc1c2ccncc2c(C)c2c1[nH]c1ccccc12 [ellipticine]
Topo-IIα inhibition mechanism (formation of linear DNA) [4]: produce discrete bands of linear DNA

Source: PMC4151564 (Journal of medicinal chemistry, 2011)
